According to article PMC8405091, “Microwave-assisted Phospha-Michael addition reactions in the 13α-oestrone series and in vitro antiproliferative properties” (Journal of Enzyme Inhibition and Medicinal Chemistry, 2021):

What was measured:
UPCI-SCC-131 cells = assay: MTT antiproliferative assay, UPCI-SCC-131; assay type: cell-based, human; conditions: Homo sapiens, 72 h, 72 h; for inhibition at 10 µM / inhibition at 30 µM: read-out: Growth inhibition, % ± SEM; for inhibition at 10 µM: UPCI-SCC-131, 10 μM; for inhibition at 30 µM: UPCI-SCC-131, 30 μM; for IC50: read-out: calculated IC50 value
Procedure: (§1) The antiproliferative properties of the newly synthesized compounds (9–20) and their starting materials (4 and 5) were determined on a panel of human adherent cancer cell lines. MCF-7, MDA-MB-231 and T47D were isolated from breast cancers differing in biochemical background, while A2780 cells were isolated from ovarian cancer. HeLa and SiHa are cervical cancer cell lines positive for HPV-18 and HPV-16, respectively, while C33-A cervical cancer cells are negative for HPV. Moreover, two oropharyngeal cancer cell lines were also utilized: the HPV-negative UPCI-SCC-131 and HPV-16 positive UPCI-SCC-154. The cancer selectivity of compounds was tested on the non-cancerous mouse embryo fibroblast cell line NIH/3T3. All cell lines were purchased from European Collection of Cell Cultures (ECCAC, Salisbury, UK) exception for SiHa and C33-A (American Tissue Culture Collection, Manassas, VA, USA) and HN-SCC-131 and UPCI-SCC-154 (German Collection of Microorganisms and Cell Cultures GmbH, Braunschweig, Germany). Cells were cultivated in minimal essential medium supplemented with 10% fetal bovine serum, 1% non-essential amino acids and an antibiotic–antimycotic mixture. The medium of oropharyngeal cancer cells additionally contained 2.0 mM L-glutamine. All media and supplements were obtained from Lonza Group Ltd., Basel, Switzerland. Near-confluent cancer cells were seeded onto a 96-well microplate at a density of 5,000 cells/well, except for C33-A which were seeded at 10,000/well. After overnight standing, new medium containing the tested compounds at 10 and 30 µM final concentration was added. After incubation for 72 h at 37 °C in humidified air containing 5% CO2, the living cells were assayed by the addition of 20 μL of 5 mg/ml 3-(4,5-dimethylthiazol-2-yl)-2,5-diphenyltetrazolium bromide (MTT) solution. MTT was converted by intact mitochondrial reductase and precipitated as purple crystals during a 4-h contact period. The medium was next removed and the precipitated formazan crystals were dissolved in 100 μL of DMSO during a 60-min period of shaking at 37 ^оC.
(§2) All in vitro experiments were carried out twice with five parallels. Stock solutions of the tested substances (10 mM) were prepared in DMSO. […] Cisplatin (Ebewe Pharma GmbH, Unterach, Austria) was used as positive control.

C33-A cells = assay: MTT antiproliferative assay, C33-A; assay type: cell-based, human; conditions: Homo sapiens, C-33-A, 72 h; for inhibition at 10 µM: read-out: Growth inhibition, % ± SEM, C33-A, 10 μM; for inhibition at 30 µM: read-out: Growth inhibition, % ± SEM, C33-A, 30 μM; for IC50: read-out: calculated IC50 value
Procedure: as §1, §2

UPCI-SCC-154 cells = assay: MTT antiproliferative assay, UPCI-SCC-154; assay type: cell-based, human; conditions: Homo sapiens, 72 h, 72 h; for inhibition at 10 µM / inhibition at 30 µM: read-out: Growth inhibition, % ± SEM; for inhibition at 10 µM: UPCI-SCC-154, 10 μM; for inhibition at 30 µM: UPCI-SCC-154, 30 μM; for IC50: read-out: calculated IC50 value
Procedure: as §1, §2

[1] = tested on: non-cancerous mouse embryo fibroblast (NIH/3T3) cells; assay: MTT assay on non-cancerous fibroblasts (tumour selectivity); assay type: cell-based; conditions: Mus musculus, NIH3T3, 72 h; for inhibition at 10 µM / inhibition at 30 µM: read-out: Growth inhibition, % ± SEM; for IC50: read-out: calculated IC50 value
Procedure: as §1, §2

HeLa cells = assay: MTT antiproliferative assay, HeLa; assay type: cell-based, human; conditions: Homo sapiens, 72 h; for inhibition at 10 µM: read-out: Growth inhibition, % ± SEM, 10 μM; for inhibition at 30 µM: read-out: Growth inhibition, % ± SEM, 30 μM; for IC50: read-out: calculated IC50 value
Procedure: as §1, §2

SiHa cells = assay: MTT antiproliferative assay, SiHa; assay type: cell-based, human; conditions: Homo sapiens, 72 h; for inhibition at 10 µM: read-out: Growth inhibition, % ± SEM, 10 μM; for inhibition at 30 µM: read-out: Growth inhibition, % ± SEM, 30 μM; for IC50: read-out: calculated IC50 value
Procedure: as §1, §2

T47D cells = assay: MTT antiproliferative assay, T47D; assay type: cell-based, human; conditions: Homo sapiens, 72 h; for inhibition at 10 µM: read-out: Growth inhibition, % ± SEM, 10 μM; for inhibition at 30 µM: read-out: Growth inhibition, % ± SEM, 30 μM; for IC50: read-out: calculated IC50 value
Procedure: as §1, §2

MCF-7 cells = assay: MTT antiproliferative assay, MCF-7; assay type: cell-based, human; conditions: Homo sapiens, MCF7, 72 h; for inhibition at 10 µM / inhibition at 30 µM: read-out: Growth inhibition, % ± SEM, 72 h; for inhibition at 10 µM: MCF-7, 10 μM; for inhibition at 30 µM: MCF-7, 30 μM; for IC50: read-out: calculated IC50 value
Procedure: as §1, §2

A2780 cells = assay: MTT antiproliferative assay, A2780; assay type: cell-based, human; conditions: Homo sapiens, A2780, 72 h; for inhibition at 10 µM / inhibition at 30 µM: read-out: Growth inhibition, % ± SEM, 72 h; for inhibition at 10 µM: A2780, 10 μM; for inhibition at 30 µM: A2780, 30 μM; for IC50: read-out: calculated IC50 value
Procedure: as §1, §2

[2] = tested on: panel of human adherent cancer cell lines; assay: MTT antiproliferative assay, whole panel of cell lines; assay type: cell-based; conditions: read-out: IC50 (span over the panel)
Procedure: as §1, with “^оC. […]” for “^оC.”

MDA-MB-231 cells = assay: MTT antiproliferative assay, MDA-MB-231; assay type: cell-based, human; conditions: Homo sapiens, MDA-MB-231, 72 h; for inhibition at 10 µM / inhibition at 30 µM: read-out: Growth inhibition, % ± SEM; for IC50: read-out: calculated IC50 value
Procedure: as §1, §2

Row | SMILES | inhibition at 10 µM (UPCI-SCC-131 cells) [%] | inhibition at 30 µM (UPCI-SCC-131 cells) [%] | IC50 (UPCI-SCC-131 cells) [µM] | inhibition at 10 µM (C33-A cells) [%] | inhibition at 30 µM (C33-A cells) [%] | IC50 (C33-A cells) [µM] | inhibition at 10 µM (UPCI-SCC-154 cells) [%] | inhibition at 30 µM (UPCI-SCC-154 cells) [%] | IC50 (UPCI-SCC-154 cells) [µM] | inhibition at 10 µM [1] [%] | inhibition at 30 µM [1] [%] | IC50 [1] [µM] | inhibition at 10 µM (HeLa cells) [%] | inhibition at 30 µM (HeLa cells) [%] | IC50 (HeLa cells) [µM] | inhibition at 10 µM (SiHa cells) [%] | inhibition at 30 µM (SiHa cells) [%] | IC50 (SiHa cells) [µM] | inhibition at 10 µM (T47D cells) [%] | inhibition at 30 µM (T47D cells) [%] | also measured
1 | COc1ccc2c(c1)CC[C@@H]1[C@@H]2CC[C@@]2(C)C(=O)[C@H](CP(=O)(c3ccc(C)cc3)c3ccc(C)cc3)C[C@@H]12 [Compound 13, [(3-methoxy-17-oxo-13α-oestra-1,3,5(10)-trien-16α-yl)methyl]di-p-tolylphosphine oxide] | 29.9 ± 1.21 | 97.02 ± 0.43 | 12.3 | < 20 | 96.31 ± 0.46 | 14.5 | < 20 | 75.9 ± 1.93 | 21.5 | < 20 | 89.76 ± 0.49 | 19.3 | < 20 | 95.69 ± 0.69 | 14.3 | < 20 | 92.9 ± 0.85 | 13.7 | 26.7 ± 1.95 | 89.82 ± 0.68 | IC50 (T47D cells): 13.6 µM; inhibition at 10 µM (MCF-7 cells): < 20%; inhibition at 30 µM (MCF-7 cells): 84.9 ± 2.54%; IC50 (MCF-7 cells): 14.8 µM; inhibition at 10 µM (A2780 cells): < 20%; inhibition at 30 µM (A2780 cells): 97.77 ± 0.35%; IC50 (A2780 cells): 23.8 µM; IC50 [2]: 10 to 25 µM; inhibition at 10 µM (MDA-MB-231 cells): < 20%; inhibition at 30 µM (MDA-MB-231 cells): 95.56 ± 0.67%; IC50 (MDA-MB-231 cells): 25.8 µM
2 | C[C@@]12CC[C@@H]3c4ccc(OCc5ccccc5)cc4CC[C@H]3[C@@H]1C[C@H](CP(=O)(c1ccccc1)c1ccccc1)C2=O [Compound 12, [(3-benzyloxy-17-oxo-13α-oestra-1,3,5(10)-trien-16β-yl)methyl]diphenylphosphine oxide] | 49.4 ± 2.06 | 90 ± 1.15 | 14.2 | < 20 | 97.68 ± 0.85 | 13.6 | < 20 | 75.5 ± 1.84 | 29.8 | < 20 | 48.3 ± 1.65 | 30.9 | < 20 | 96.4 ± 1.88 | 13.6 | < 20 | 94.8 ± 1.48 | 14.1 | 31.4 ± 1.55 | 75 ± 1.65 | IC50 (T47D cells): 17 µM; inhibition at 10 µM (MCF-7 cells): < 20%; inhibition at 30 µM (MCF-7 cells): 90.2 ± 1.61%; IC50 (MCF-7 cells): 16.4 µM; inhibition at 10 µM (A2780 cells): < 20%; inhibition at 30 µM (A2780 cells): 97.14 ± 0.55%; IC50 (A2780 cells): 28.5 µM; IC50 [2]: 13.6 to 29.8 µM; inhibition at 10 µM (MDA-MB-231 cells): < 20%; inhibition at 30 µM (MDA-MB-231 cells): 84 ± 2.61%; IC50 (MDA-MB-231 cells): 24.5 µM
